The results in this text go back to PubChem BioAssay (NCI).

Common to all, as to assay: NCI-60 cell line screen, 48 h
Assay [1] has as its system HT29 colon.
Assay [2] deals with RPMI-8226 leukemia.
Assay [3] has as its system OVCAR-3 ovarian.
The subject of assay [4] is RXF 393 renal.
Assay [5] concerns ACHN renal.
The test system of assay [6] is TK-10 renal.
Assay [7] deals with HOP-92 NSCLC.
Assay [8] relates to A498 renal.
The test system of assay [9] is SK-MEL-28 melanoma.
Assay [10] has as its system CCRF-CEM leukemia.

SMILES strings stand for the structures.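 Cells were grown in 96-well plates and exposed to each compound for 48 hours at five concentrations; endpoints were interpolated linearly between bracketing concentrations, or set to the highest concentration if not reached. Abbreviation: GI50, concentration required for 50% inhibition of growth. TGI marks complete inhibition of growth.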

As to `C[C@H]1[C@H](C)CC[C@]2(C(=O)O)CC[C@]3(C)C(=CC[C@@H]4[C@@]5(C)CC[C@H](OC(=O)/C=C\c6ccc(O)cc6)C(C)(C)[C@@H]5CC[C@]43C)[C@H]12`, the GI50 in assay [1] was 4.87 µM; in assay [2], 1.8 µM; in [3] it was 3.05 µM; in assay [4], 1.52 µM; in assay [5] it was 2.89 µM; in [6], 1.15 µM. Moreover, the GI50 is 4.25 µM in [7], 15 µM in [8] and 18 µM in assay [9]. Further, the TGI in [1] amounted to 19.5 µM; in assay [2] it was 10.3 µM; in assay [3], 21.2 µM; in [4] it was 6.94 µM; in [5], 12.1 µM; in assay [6], 4.66 µM. Moreover, the figures for the TGI in assay [7], in assay [8] and in [9] were 19.2 µM, 29.2 µM and 57 µM, respectively.

With `O=c1[nH]c(C2CCCCC2)nc2cc(Cl)ccc12`, the TGI in assay [1], in [2], in [3], in [4], in assay [5] and in [6] was greater than 100 µM each time. For the same compound, the TGI in assay [7] is 94.3 µM; in [9], greater than 100 µM.

Consider `COC(C(=O)[C@@H](O)[C@@H](C)O)[C@@H]1Cc2cc3cc(O[C@H]4C[C@@H](O[C@H]5C[C@@H](O)[C@H](O)C(C)O5)[C@H](O)C(C)O4)c(C)c(O)c3c(O)c2C(=O)[C@H]1O[C@H]1C[C@@H](O[C@H]2C[C@@H](O[C@H]3C[C@@H](O)[C@@H](O)C(C)O3)[C@@H](O)C(C)O2)[C@H](O)C(C)O1` (some centres undefined), for which the GI50 was 1.84 µM in [10]; 0.368 µM in [1]; 0.232 µM in assay [3]; 0.202 µM in [4]; 0.485 µM in assay [5]; 0.873 µM in assay [6]. In addition, the GI50 in [7] was 0.119 µM; in [8], 0.0542 µM; in assay [9], 0.147 µM. Besides, the TGI in assay [10] was greater than 32.5 µM; in assay [1], greater than 32.5 µM; in assay [3], 8.76 µM; in assay [4] it was 1.01 µM; in [5], greater than 32.5 µM; in assay [6] it was greater than 32.5 µM. Further, the TGI in assay [7] came out at 2.03 µM; in assay [8], 0.278 µM; in assay [9], 1.93 µM.

In the case of `COc1ccc(OC)c2c3c(ncc12)-c1cc2c(cc1C3)OCO2`, the GI50 in assay [10] was greater than 100 µM; in [2], greater than 100 µM; in [3], 26.9 µM; in [4], greater than 100 µM; in [5] it was 2.97 µM; in assay [6], greater than 100 µM. Besides, the GI50 in [7] and in [9] was greater than 100 µM in each case. The TGI in assay [10], in assay [2], in assay [3], in assay [4], in [5] and in [6] was greater than 100 µM throughout. Besides, the TGI in [7] and in assay [9] was greater than 100 µM in each case.

As to `COc1cc([C@@H]2c3cc4c(cc3[C@@H](NC(=O)c3ccc([N+](=O)[O-])cc3)C3COC(=O)[C@@H]32)OCO4)cc(OC)c1O` (some centres undefined), the TGI in assay [1] came to 5.68 µM; in [2], 3.62 µM; in assay [3] it was 4.81 µM; in assay [4], 34.8 µM; in [5] it was 1.58 µM; in assay [6], 5.86 µM. In addition, the TGI in assay [7] came out at 40.2 µM; in [8] it was 3.9 µM; in [9], 89 µM.

Take `COc1cc2c(cc1C)NC(=O)/C2=C/c1c(C)nc2sc(C)cn12`: the GI50 in assay [10] was 53.4 µM; in assay [1], greater than 100 µM; in assay [2], 31.3 µM; in [3], 74.7 µM; in assay [4] it was greater than 100 µM; in assay [5], greater than 100 µM. Besides, the GI50 in [6] was 68 µM; in [7] it was 22.1 µM; in assay [9] it was greater than 100 µM. Also, the TGI in assay [10], in assay [1], in assay [2], in assay [3], in assay [4] and in assay [5] was greater than 100 µM each time. The TGI in [6], in assay [7] and in [9] was greater than 100 µM each time.

As for `NS(=O)(=O)c1ccc(NCc2cnc3ccccc3c2)cc1`, the TGI in [1], in assay [2], in assay [3], in [4], in [5] and in assay [6] was greater than 100 µM in each case. The TGI in [7], in assay [8] and in [9] was greater than 100 µM throughout.

Take `OCCCNC(=S)Nc1ccc(-c2nc3ccccc3s2)cc1`: the GI50 was 16.9 µM in [10]; 32.2 µM in assay [1]; 26.5 µM in assay [2]; 15 µM in assay [3]; 10.4 µM in assay [4]; 21.5 µM in assay [5]. The GI50 in assay [6] is 19.3 µM; in assay [7], 19.7 µM; in assay [9], 24.9 µM. Also, the TGI was greater than 100 µM in [10]; greater than 100 µM in assay [1]; greater than 100 µM in [2]; 59.8 µM in [3]; 52.4 µM in [4]; 47.7 µM in assay [5]. The TGI came to 55.8 µM in assay [6], 82.9 µM in [7] and 70.3 µM in assay [9].

As for `Cn1c(-c2ccccc2)c/c(=N\NS(C)(=O)=O)c2cc(S(=O)(=O)O)ccc21`, the TGI in [10], in assay [1], in assay [2], in [3], in assay [4] and in assay [5] was greater than 100 µM in each case. Moreover, the TGI in assay [6], in assay [7] and in assay [9] was greater than 100 µM throughout.

Turning to `Cc1ccc(C2CC(c3cccc(Nc4ccncc4)c3)=NN2c2ccc(Cl)cc2)cc1` (centres undefined), the GI50 in [10] was 2.64 µM; in assay [1], 1.86 µM; in assay [3], 1.69 µM; in assay [4] it was 1.59 µM; in [5], 1.63 µM; in [6], 1.78 µM. Moreover, the GI50 in assay [7] is 1.38 µM; in assay [8], 1.38 µM; in [9] it was 1.83 µM. In addition, the TGI was found to be 7.66 µM in assay [10]; 3.9 µM in assay [1]; 3.06 µM in [3]; 2.97 µM in assay [4]; 2.99 µM in [5]; 3.35 µM in assay [6]. Also, the TGI in assay [7] is 2.74 µM; in assay [8], 2.7 µM; in assay [9], 3.32 µM.

As for `COc1ccc(/C=C2\CCCC3=C2N=C2SC=NN2C3c2ccc(OC)c(OC)c2)cc1OC` (centres undefined), the GI50 in assay [10] is 6.16 µM; in assay [1], 19.9 µM; in assay [3], 4.62 µM; in [4] it was 4.91 µM; in assay [5], 7.71 µM; in assay [6], 21 µM. The GI50 in assay [7] is 11.6 µM; in [8], 2.76 µM; in assay [9], 19.3 µM. In addition, the TGI in assay [10] was greater than 100 µM; in [1] it was greater than 100 µM; in [3], 75.4 µM; in [4] it was 24.3 µM; in assay [5], greater than 100 µM; in [6], 76.2 µM. Also, the results for the TGI in assay [7], in assay [8] and in [9] were 58.9 µM, 40.8 µM and greater than 100 µM, respectively.

`Nc1nn(C(=O)Nc2ccc(Cc3ccccc3)cc2)c2ccccc12`: the GI50 in [1] is 2.39 µM; in assay [2], 1.86 µM; in [3] it was 6.23 µM; in assay [4], 22.2 µM; in assay [5], 1.69 µM; in assay [6] it was 27.2 µM. For the same compound, the GI50 in assay [7] was 14.2 µM; in [8], 16.7 µM; in [9] it was 11.5 µM. Further, the TGI in assay [1] was 17.6 µM; in assay [2], 25.8 µM; in assay [3], 63.1 µM; in assay [4], 58.2 µM; in [5], 33.4 µM; in assay [6], greater than 100 µM. The TGI in [7] was 42.6 µM; in assay [8], 31.5 µM; in assay [9], greater than 100 µM.

Consider `Clc1cccc(Cc2cn3cc(-c4ccccc4)nc3s2)c1`, for which the GI50 in assay [10] was 43 µM; in assay [1], 11.8 µM; in assay [2], 7.4 µM; in assay [3], 9.07 µM; in assay [4], 15.1 µM; in assay [5], 2.77 µM. The GI50 in assay [6] was 22 µM; in assay [7], 11.5 µM; in assay [9], 61.5 µM. The TGI is greater than 100 µM in assay [10]; greater than 100 µM in assay [1]; greater than 100 µM in assay [2]; greater than 100 µM in assay [3]; 40.4 µM in assay [4]; greater than 100 µM in assay [5]. For the same compound, the TGI in assay [6] is greater than 100 µM; in assay [7], 34.3 µM; in assay [9], greater than 100 µM.

In the case of `C#Cc1ccc(-n2c(/C=C/c3ccc4ccccc4n3)nc3ncccc3c2=O)cc1`, the GI50 in [1] was 0.375 µM; in [3] it was 0.317 µM; in assay [4] it was 0.269 µM; in assay [7], 0.37 µM; in [8], 0.138 µM; in [9], 0.904 µM. Besides, the TGI is 1.13 µM in [1]; 0.905 µM in assay [3]; 0.792 µM in [4]; 1.8 µM in assay [7]; 0.615 µM in assay [8]; 2.13 µM in assay [9].

Turning to `CNC(=S)N/N=C(/C)CCC/C(C)=N/NC(=S)NC`, the TGI in [1] is greater than 100 µM; in [2] it was greater than 100 µM; in [3], greater than 93.2 µM; in assay [4] it was greater than 50.3 µM; in assay [5], greater than 100 µM; in assay [6] it was greater than 100 µM. The TGI in [7], in assay [8] and in assay [9] was greater than 100 µM throughout.

For `CC(=O)O[C@@H]1CC(=O)O[C@@H]2C[C@@H](CC/C(Cl)=C/C/C=C\1C)O[C@@H]2CO`, the GI50 in assay [1], in [2], in assay [4], in [5], in assay [6] and in assay [7] was greater than 25 µM in each case. Further, the GI50 in [8] is 20.1 µM; in assay [9], greater than 25 µM. For the same compound, the TGI in assay [1] is greater than 25 µM; in assay [2] it was greater than 25 µM; in assay [3] it was greater than 10.6 µM; in assay [4], greater than 25 µM; in [5], greater than 25 µM; in assay [6] it was greater than 25 µM. Further, the TGI in [7], in assay [8] and in assay [9] was greater than 25 µM throughout.

In the case of `Cc1ccc(S(=O)(=O)C2=C3C(=C(c4ccccc4)c4ccccc43)CN(S(=O)(=O)c3ccc(C)cc3)C2)cc1`, the GI50 in [10] is 0.446 µM; in [1], 3.32 µM; in assay [2] it was 1.41 µM; in assay [3], 4.34 µM; in [4] it was 4.01 µM; in assay [5], 4.52 µM. Besides, the results for the GI50 in assay [6], in assay [7] and in assay [9] were 14.2 µM, 1.86 µM and 15 µM, respectively. Besides, the TGI was greater than 100 µM in assay [10]; 69.4 µM in assay [1]; 7.41 µM in assay [2]; 18.8 µM in assay [3]; 16 µM in assay [4]; 19.3 µM in assay [5]. Further, the TGI amounted to 30.1 µM in [6], 13.8 µM in assay [7] and 52.3 µM in assay [9].

On to `O=C(O)c1cn(C2CC2)c2cc(N3CCN(C(=O)Nc4nc(-c5ccc(Cl)cc5)cs4)CC3)c(F)cc2c1=O`, for which the GI50 was 1.22 µM in [10]; 2.99 µM in assay [1]; 2.38 µM in assay [3]; 3.37 µM in assay [4]; 1.63 µM in assay [5]; 4.11 µM in assay [6]. For the same compound, the GI50 in [7] is 1.85 µM; in assay [8] it was 1.47 µM; in assay [9] it was 0.701 µM. For the same compound, the TGI is greater than 100 µM in [10]; greater than 100 µM in assay [1]; 34.6 µM in [3]; 54.6 µM in [4]; 22 µM in assay [5]; greater than 100 µM in assay [6]. Besides, the TGI is 7.63 µM in assay [7], 9.46 µM in assay [8] and greater than 100 µM in [9].
